This note sets out measurements from patent US20220046923A1, “HERBICIDAL CINNOLINIUM COMPOUNDS” (SYNGENTA CROP PROTECTION AG, priority 2018, published 2022).

Molecules are shown by their SMILES.

Common to all, as to assay: Post-emergence efficacy, glasshouse spray test
What all share (type): in vivo

The subject of one test is Lolium perenne (LOLPE). The settings on record: application rate 1000 g/Ha, evaluated after 13 days; for pest or weed control at 1000 g/ha: Lolium perenne, post-emergence, 312 h, read-out: Control of weed species LOLPE after post-emergence application (100=total damage to plant; 0=no damage to plant). The essentials:
(§1)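 Compound formulated in acetone/IF50 and diluted into 0.25% or 1% Empicol ESC70 with 1% ammonium sulphate was sprayed on glasshouse seedlings 14 days after sowing. Growth continued at 24/16 °C, 14 h light, 65% humidity with twice-daily watering; damage (0–100) scored on day 13.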

The test system of test [1] is Amaranthus palmeri (AMAPA). The settings on record: application rate 1000 g/Ha, evaluated after 13 days; for pest or weed control at 1000 g/ha: Amaranthus palmeri, post-emergence, 312 h, read-out: Control of weed species AMAPA after post-emergence application (100=total damage to plant; 0=no damage to plant). The essentials:
as §1

Another test relates to Setaria faberi (SETFA). The settings on record: application rate 1000 g/Ha, evaluated after 13 days; for pest or weed control at 1000 g/ha: Setaria faberi, post-emergence, 312 h, read-out: Control of weed species SETFA after post-emergence application (100=total damage to plant; 0=no damage to plant). The essentials:
as §1

Test [2] has as its system Echinochloa crus-galli (ECHCG). The settings on record: application rate 1000 g/Ha, evaluated after 13 days; for pest or weed control at 1000 g/ha: Echinochloa crus-galli, post-emergence, 312 h, read-out: Control of weed species ECHCG after post-emergence application (100=total damage to plant; 0=no damage to plant). The method, boiled down: as §1
For test [3], the system named is Chenopodium album (CHEAL). The following applies: application rate 1000 g/Ha, evaluated after 13 days; for pest or weed control at 1000 g/ha: Chenopodium album, post-emergence, 312 h, read-out: Control of weed species CHEAL after post-emergence application (100=total damage to plant; 0=no damage to plant). The method, boiled down:
as §1

Another test concerns Eleusine indica (ELEIN). The settings on record: application rate 1000 g/Ha, evaluated after 13 days; for pest or weed control at 1000 g/ha: Eleusine indica, post-emergence, 312 h, read-out: Control of weed species ELEIN after post-emergence application (100=total damage to plant; 0=no damage to plant). The essentials: as §1
Test [4] has as its system Ipomoea hederacea (IPOHE). The settings on record: application rate 1000 g/Ha, evaluated after 13 days; for pest or weed control at 1000 g/ha: Ipomoea hederacea, post-emergence, 312 h, read-out: Control of weed species IPOHE after post-emergence application (100=total damage to plant; 0=no damage to plant). The method, boiled down: as §1
For test [5], the system named is Digitaria sanguinalis (DIGSA). The following applies: application rate 1000 g/Ha, evaluated after 13 days; for pest or weed control at 1000 g/ha: Digitaria sanguinalis, post-emergence, 312 h, read-out: Control of weed species DIGSA after post-emergence application (100=total damage to plant; 0=no damage to plant). The essentials:
as §1

Test [6] deals with Euphorbia heterophylla (EPHHL). The following applies: application rate 1000 g/Ha, evaluated after 13 days; for pest or weed control at 1000 g/ha: Euphorbia heterophylla, post-emergence, 312 h, read-out: Control of weed species EPHHL after post-emergence application (100=total damage to plant; 0=no damage to plant). The method, boiled down:
as §1

For the compound `O=S(=O)(O)CC[n+]1ccc2ccc(-c3ccccc3)cc2n1` [Compound A78], the pest or weed control at 1000 g/ha is 0% with Lolium perenne (LOLPE); 20% in test [1]; 30% in the test on Setaria faberi (SETFA); 20% in [2]; 0% in test [3]; 70% in the test on Eleusine indica (ELEIN). For the same compound, the pest or weed control at 1000 g/ha came to 10% in test [4], 50% in test [5] and 40% in test [6].

`O=S(=O)(O)CC[n+]1cc(C2CC2)c2ccccc2n1` [Compound A79]: the pest or weed control at 1000 g/ha with Lolium perenne (LOLPE) was determined as 10%; in test [1], 60%; in the test on Setaria faberi (SETFA) it was 30%; in test [2] it was 20%; in test [3], 30%; with Eleusine indica (ELEIN), 10%. Also, the figures for the pest or weed control at 1000 g/ha in [4], in test [5] and in test [6] were 40%, 20% and 40%, respectively.

For the compound `O=S(=O)([O-])CC[n+]1ccc2ccc(C(F)(F)F)cc2n1` [Compound A80], the pest or weed control at 1000 g/ha in the test with Lolium perenne (LOLPE) came to 10%; in [1], 0%; in the test on Setaria faberi (SETFA) it was 30%; in test [2], 20%; in [3], 20%; with Eleusine indica (ELEIN), 30%. For the same compound, the pest or weed control at 1000 g/ha was 0% in [4], 20% in test [5] and 20% in test [6].

As to `O=S(=O)([O-])CC[n+]1ccc2c(F)cccc2n1` [Compound A81], the pest or weed control at 1000 g/ha turned out to be 20% in the test on Lolium perenne (LOLPE); 40% in test [1]; 20% in the test with Setaria faberi (SETFA); 20% in test [2]; 70% in test [3]; 30% in the test with Eleusine indica (ELEIN). Moreover, the values for the pest or weed control at 1000 g/ha in test [4], in [5] and in test [6] were 10%, 20% and 90%, respectively.

Take `O=S(=O)([O-])CC[n+]1ccc2cc(F)ccc2n1` [Compound A82]: the pest or weed control at 1000 g/ha in the test with Lolium perenne (LOLPE) was 30%; in test [1] it was 90%; in the test with Setaria faberi (SETFA), 30%; in test [2], 20%; in test [3] it was 70%; in the test with Eleusine indica (ELEIN) it was 60%. For the same compound, the pest or weed control at 1000 g/ha is 40% in [4], 40% in test [5] and 60% in [6].

As to `O=S(=O)([O-])CC[n+]1ccc2ccc(F)cc2n1` [Compound A83], the pest or weed control at 1000 g/ha in the test with Lolium perenne (LOLPE) was found to be 50%; in test [1], 100%; with Setaria faberi (SETFA), 50%; in [2] it was 40%; in [3], 100%; in the test on Eleusine indica (ELEIN) it was 80%. For the same compound, the pest or weed control at 1000 g/ha was found to be 60% in test [4], 50% in test [5] and 100% in [6].

Take `O=S(=O)([O-])CC[n+]1ccc2cccc(F)c2n1` [Compound A84]: the pest or weed control at 1000 g/ha with Lolium perenne (LOLPE) amounted to 50%; in test [1] it was 100%; in the test on Setaria faberi (SETFA), 50%; in test [2], 20%; in [3], 70%; with Eleusine indica (ELEIN), 70%. Also, the pest or weed control at 1000 g/ha turned out to be 50% in test [4], 60% in test [5] and 100% in [6].

As to `COc1ccc2cc[n+](CCS(=O)(=O)[O-])nc2c1` [Compound A85], the pest or weed control at 1000 g/ha with Lolium perenne (LOLPE) was 20%; in [1], 100%; with Setaria faberi (SETFA), 30%; in test [2] it was 20%; in test [3] it was 100%; in the test on Eleusine indica (ELEIN), 40%. For the same compound, the results for the pest or weed control at 1000 g/ha in [4], in [5] and in [6] were 70%, 20% and 80%, respectively.

Turning to `COc1cccc2cc[n+](CCS(=O)(=O)[O-])nc12` [Compound A86], the pest or weed control at 1000 g/ha in the test with Lolium perenne (LOLPE) stood at 60%; in [1], 100%; in the test with Setaria faberi (SETFA) it was 50%; in [2] it was 50%; in [3] it was 100%; in the test with Eleusine indica (ELEIN) it was 80%. In addition, the values for the pest or weed control at 1000 g/ha in test [4], in test [5] and in test [6] were 90%, 40% and 90%, respectively.

For `Cc1ccc2cc[n+](CCS(=O)(=O)[O-])nc2c1` [Compound A87], the pest or weed control at 1000 g/ha in the test with Lolium perenne (LOLPE) was found to be 40%; in test [1] it was 100%; in the test with Setaria faberi (SETFA), 50%; in test [2] it was 40%; in test [3] it was 100%; with Eleusine indica (ELEIN), 80%. Further, the pest or weed control at 1000 g/ha in test [4] was determined as 70%; in test [5] it was 40%; in test [6], 100%.

For the compound `O=S(=O)([O-])CC[n+]1ccc2cc(Cl)ccc2n1` [Compound A88], the pest or weed control at 1000 g/ha worked out at 30% in the test with Lolium perenne (LOLPE); 70% in [1]; 40% with Setaria faberi (SETFA); 20% in test [2]; 40% in [3]; 50% with Eleusine indica (ELEIN). Further, the pest or weed control at 1000 g/ha in [4] is 20%; in [5], 50%; in [6] it was 60%.

Turning to `O=C(O)c1ccc(C[n+]2ccc3ccccc3n2)cc1` [Compound A89], the pest or weed control at 1000 g/ha in the test on Lolium perenne (LOLPE) was determined as 0%; in [1], 20%; with Setaria faberi (SETFA), 0%; in [2], 0%; in test [3] it was 0%; in the test on Eleusine indica (ELEIN) it was 0%. Further, the pest or weed control at 1000 g/ha in [4] came out at 20%; in test [5], 0%; in [6], 40%.

As for `O=S(=O)(O)c1cccc(C[n+]2ccc3ccccc3n2)c1` [Compound A93, 3-(cinnolin-2-ium-2-ylmethyl)benzenesulfonic Acid], in the test with Lolium perenne (LOLPE), the “Control of weed species LOLPE after post-emergence application (100=total damage to plant; 0=no damage to plant)” value worked out at 10. In test [1], the “Control of weed species AMAPA after post-emergence application (100=total damage to plant; 0=no damage to plant)” value is 10. In addition, the “Control of weed species SETFA after post-emergence application (100=total damage to plant; 0=no damage to plant)” value in the test with Setaria faberi (SETFA) came to 20. Further, in test [2], the “Control of weed species ECHCG after post-emergence application (100=total damage to plant; 0=no damage to plant)” value came to 20. Further, in test [3], the “Control of weed species CHEAL after post-emergence application (100=total damage to plant; 0=no damage to plant)” value amounted to 10. In addition, the “Control of weed species ELEIN after post-emergence application (100=total damage to plant; 0=no damage to plant)” value in the test with Eleusine indica (ELEIN) is 10. The “Control of weed species IPOHE after post-emergence application (100=total damage to plant; 0=no damage to plant)” value in test [4] is recorded as 40. Besides, the “Control of weed species DIGSA after post-emergence application (100=total damage to plant; 0=no damage to plant)” value in [5] was determined as 20. For the same compound, the “Control of weed species EPHHL after post-emergence application (100=total damage to plant; 0=no damage to plant)” value in test [6] worked out at 50.
